Like-named read-outs stand apart in the source and are kept apart here.
Experiments:
Assay in all cases: Cellular proliferation assay
Type in all cases: cell-based
MOLM-14 = test system: MOLM-14
Description: (§1) All suspension cells were plated (96-well) in triplicate at 5,000-30,000 cells per well for testing (n=3). Viable cell number was estimated after 3, 7 and 10 days by counting viable cells from one vehicle well, generating a cell dilution series, transferring […] per well in duplicate to a 384-well plate, and performing a linear regression to CellTiter-Glo (Promega) response (SPECTRAmax M3, Molecular Devices). Cells from all wells were also fourfold diluted in media and transferred in duplicate for CellTiter-Glo measurement. On days 3 and 7, an equal volume for all wells was split-back with fresh media and compound, such that the resulting cell density for the vehicle well matched the initial seeding density. For days 7 and 10, estimated cell number represents the split-adjusted theoretical cell number. HCT116 were plated (96-well) in triplicate at 250 cells per well. Cells were incubated in the presence of vehicle, 1 μM paclitaxel, or compound. On day 7, CellTiter-Blue (Promega) response was measured and values were normalized to vehicle (100% growth) and paclitaxel (0% growth). For growth assays with inhibitors, n=3 for each concentration with two independent experiments.

ALL-SIL = conditions: T-ALL, TLX1 overexpression
Description: as §1

[1] = test system: megakaryocytic cell lines; conditions: read-out: 50% maximal growth inhibitory concentrations (GI50s); 5 out of 5 megakaryocytic cell lines tested
Description: as §1

Jurkat = conditions: T-ALL
Description: as §1

RS4; 11 = conditions: B-ALL, MLL-AF4
Description: as §1

MOLM-16 = conditions: AMkL < 1
Description: as §1

K562 = test system: K562
Description: as §1

HEL = test system: HEL
Description: as §1

SET-2 = test system: SET-2
Description: as §1

SKNO-1 = test system: SKNO-1
Description: as §1

HL-60 = conditions: AML/APL
Description: as §1

CMK-86 = test system: CMK-86
Description: as §1

REH = conditions: pre B-ALL, ETV6-RUNX1
Description: as §1

MEG-01 = test system: MEG-01
Description: as §1

TF-1 = test system: TF-1
Description: as §1

OCI-LY1 = conditions: DLBCL
Description: as §1

HCT116 = conditions: Colorectal, β-catenin
Description: as §1

NB4 = conditions: AML/APL, PML-RARA
Description: as §1

MM1.S = conditions: MM
Description: as §1

UKE-1 = conditions: AML/MPN, JAK2V617F
Description: as §1

Kasumi-1 = conditions: AML, RUNX1-RUNX1T1
Description: as §1

JeKo-1 = conditions: Mantle Cell Lymphoma
Description: as §1

ARH-77 = conditions: MM/PCL
Description: as §1

MKPL-1 = MKPL-1 (RBM6-CSF1R), adult non-DS-AMKL; 10-day treatment; read-out: G150 after 10 days of treatment
Description: as §1

GRANTA 519 = conditions: Mantle Cell Lymphoma
Description: as §1

ME-1 = ME-1 (CBFB-MYH11); 10-day treatment; read-out: G150 after 10 days of treatment
Description: as §1

MV4; 11 = test system: MV4; 11
Description: as §1

leukemia cell lines = conditions: K562 and HEL compared to MEG-01 and SET-2 (BCR-Abl or JAK2V617F)
Description: as §1

Work on Cortistatin A yielded a GI50 (MOLM-14; MOLM-14 (MLL-AF9), 10-day treatment, read-out: G150 after 10 days of treatment) of 5 nM, a GI50 (MOLM-14; MOLM-14, AML, MLL-AF9, read-out: GI50) of 5 nM and a GI50 (ALL-SIL) of 2 nM. For the same substance, the IC50 [1] was less than 10 nM, the GI50 (Jurkat) was 155 nM and the GI50 (RS4; 11) was 3 nM. For the same substance, the GI50 (MOLM-16) was less than 1 nM, the IC50 (K562; K562 (BCR-Abl), erythroleukemia, 10-day treatment, read-out: G150 after 10 days of treatment) was greater than 1000 nM and the GI50 (K562; K562, CML/Erythroleukemia, BCR-ABL) was greater than 1000 nM. For the same substance, the IC50 (HEL; HEL (JAK2V617F), erythroleukemia, 10-day treatment, read-out: G150 after 10 days of treatment) was greater than 1000 nM, the GI50 (HEL; HEL, AML/Erythroleukemia, JAK2V617F) was greater than 1000 nM and the IC50 (SET-2; SET-2 (JAK2V617F), 10-day treatment, read-out: G150 after 10 days of treatment) was 4 nM. The GI50 (SET-2; SET-2, AMkL/MPN, JAK2V617F) was 4 nM, the “proliferation, theoretical cell number over time” value (SET-2; SET-2, FIG. 4) was “inhibits the proliferation” and the IC50 (SKNO-1; SKNO-1 (RUNX1-RUNX1T1), 10-day treatment, read-out: G150 after 10 days of treatment) was 1 nM. The GI50 (SKNO-1; SKNO-1, RUNX1-RUNX1T1) was 1 nM, the GI50 (HL-60) was 7 nM and the IC50 (CMK-86; CMK-86 (GATA1s), pediatric DS-AMKL, 10-day treatment, read-out: G150 after 10 days of treatment) was 8 nM. The GI50 (CMK-86; CMK-86, AMkL, GATA1s) was 8 nM, the GI50 (REH) was 1 nM and the IC50 (MEG-01; MEG-01 (BCR-AB1, GAGA1s), adult non-DS-AMKL, 10-day treatment, read-out: G150 after 10 days of treatment) was 9 nM. For the same substance, the GI50 (MEG-01; MEG-01, CML/AMkL, BCR-ABL, GATA1s) was 9 nM, the IC50 (TF-1; TF-1 (EpoR), erythroleukemia, 10-day treatment, read-out: G150 after 10 days of treatment) was 350 nM and the GI50 (TF-1; TF-1, AML/Erythroleukemia, EpoR) was 350 nM. The GI50 (OCI-LY1) was 37 nM, the GI50 (HCT116) was greater than 1000 nM and the GI50 (NB4) was greater than 1000 nM. For the same substance, the GI50 (MM1.S) was 5 nM, the GI50 (UKE-1) was 7 nM and the GI50 (Kasumi-1) was 95 nM. The GI50 (JeKo-1) was less than 1 nM, the GI50 (ARH-77) was 16 nM and the IC50 (MKPL-1) was 1 nM. It also gave a GI50 (GRANTA 519) of 400 nM, an IC50 (ME-1) of 1 nM and an IC50 (MV4; 11; 11 (MLL-AF4), 10-day treatment, read-out: G150 after 10 days of treatment) of 6 nM. For the same substance, the GI50 (MV4; 11; 11, AML, MLL-AF4) was 6 nM and the “difference in sensitivity, megakaryocytic vs erythroleukemia cell lines containing the same mutations” value (leukemia cell lines) was “more than 100 fold”.

Reference: patent publication US20180369230A1, “TARGETED SELECTION OF PATIENTS FOR TREATMENT WITH SPECIFIC CORTISTATIN DERIVATIVES” (President and Fellows of Harvard College, priority 2015, published 2018)
